This note sets out measurements from PubChem BioAssay (NCI).

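Protocol summary: plate cells (96-well), add compound at 5 concentrations, incubate 48 h, interpolate endpoints linearly. At the GI50, growth is halved. At the TGI there is no net growth.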

Among the test systems are SF-295 CNS; MOLT-4 leukemia; SK-MEL-28 melanoma; SF-539 CNS; HL-60(TB) leukemia; SW-620 colon; CCRF-CEM leukemia; HCT-15 colon; RPMI-8226 leukemia; NCI-H460 lung.
Holding throughout (assay): NCI tumour cell line growth inhibition, 48 h

In the case of `Fc1ccc(-c2nn3ncccc3c2-c2ccnc(Nc3ccc4c(c3)OCCO4)n2)cc1`, the GI50 in the assay on SF-295 CNS was 6.35 µM; in the assay on MOLT-4 leukemia, 4800 nM; in the assay with SK-MEL-28 melanoma, 8640 nM; in the assay with SF-539 CNS it was 6590 nM; with HL-60(TB) leukemia, 5010 nM; in the assay on SW-620 colon, 5820 nM. Also, the GI50 is 6220 nM in the assay with CCRF-CEM leukemia, 3590 nM in the assay with HCT-15 colon, 7850 nM with RPMI-8226 leukemia and 5640 nM in the assay on NCI-H460 lung. In addition, the TGI was 18.6 µM in the assay with SF-295 CNS; > 22.4 µM in the assay on MOLT-4 leukemia; > 25 µM in the assay on SK-MEL-28 melanoma; > 25 µM with SF-539 CNS; 13.8 µM with HL-60(TB) leukemia; > 18.9 µM in the assay with SW-620 colon. In addition, the TGI in the assay with CCRF-CEM leukemia is > 25 µM; in the assay on HCT-15 colon, 19.4 µM; in the assay on RPMI-8226 leukemia it was > 25 µM; in the assay on NCI-H460 lung it was > 23.3 µM.
`O=C(/C=C\n1cnc(-c2cc(C(F)(F)F)cc(C(F)(F)F)c2)n1)NNc1cnccn1`: the GI50 in the assay on SF-295 CNS was 0.0534 µM; in the assay with MOLT-4 leukemia it was 31.2 nM; in the assay with SK-MEL-28 melanoma, 67.2 nM; in the assay with SF-539 CNS it was 28.6 nM; in the assay with HL-60(TB) leukemia, 46.7 nM; in the assay with SW-620 colon it was 47.2 nM. For the same molecule, the GI50 with CCRF-CEM leukemia was 106 nM; with HCT-15 colon it was 98 nM; in the assay with RPMI-8226 leukemia it was 44.9 nM; in the assay with NCI-H460 lung it was 37 nM. Moreover, the TGI is 11.2 µM with SF-295 CNS; > 100 µM in the assay on MOLT-4 leukemia; 11 µM in the assay on SK-MEL-28 melanoma; 1.12 µM in the assay on SF-539 CNS; 13.3 µM in the assay with SW-620 colon; > 100 µM in the assay with CCRF-CEM leukemia. The TGI was 13.4 µM with HCT-15 colon, > 47.3 µM in the assay with RPMI-8226 leukemia and 3.14 µM with NCI-H460 lung.
`CCCCN1CSC(=S)N(Cc2ccccc2)C1`: the TGI was > 100 µM in the assay with SF-295 CNS; 78.2 µM with MOLT-4 leukemia; > 100 µM in the assay with SK-MEL-28 melanoma; > 100 µM in the assay on SF-539 CNS; 19.4 µM in the assay on HL-60(TB) leukemia; > 100 µM in the assay with SW-620 colon. For the same molecule, the TGI in the assay on CCRF-CEM leukemia is 32.9 µM; in the assay with HCT-15 colon, > 100 µM; in the assay on RPMI-8226 leukemia it was 59 µM; in the assay with NCI-H460 lung, > 94.3 µM.
`COc1cc2c3c(n(CCNCCCNCCn4c5c(c6cc(OC)c(OC)cc6c4=O)C(=O)c4ccccc4-5)c(=O)c2cc1OC)-c1ccccc1C3=O`: the GI50 was 0.105 µM with SF-295 CNS; 1780 nM in the assay on SK-MEL-28 melanoma; 199 nM in the assay on SF-539 CNS; < 15.4 nM in the assay with HL-60(TB) leukemia; 261 nM in the assay on SW-620 colon; < 17.4 nM in the assay on CCRF-CEM leukemia. Further, the values for the GI50 in the assay with HCT-15 colon, with RPMI-8226 leukemia and in the assay with NCI-H460 lung were 54200 nM, < 18 nM and 71.9 nM, respectively. Besides, the TGI with SF-295 CNS came out at 2.11 µM; in the assay with MOLT-4 leukemia, 0.0432 µM; in the assay with SK-MEL-28 melanoma, 5.07 µM; with SF-539 CNS, 15.5 µM; in the assay on HL-60(TB) leukemia it was 0.334 µM; with SW-620 colon it was 11.8 µM. In addition, the TGI in the assay on CCRF-CEM leukemia was 1.63 µM; in the assay on HCT-15 colon it was > 100 µM; in the assay on RPMI-8226 leukemia, 0.614 µM; in the assay with NCI-H460 lung, 4.68 µM.
On to `C/C(=N\Nc1ccc(Cl)cn1)c1ccccn1`, for which the GI50 in the assay on SF-295 CNS is 0.262 µM; in the assay on MOLT-4 leukemia, 26 nM; in the assay on SK-MEL-28 melanoma, 250 nM; in the assay with SF-539 CNS, 229 nM; with HL-60(TB) leukemia, 35.9 nM; with SW-620 colon it was 62.2 nM. Further, the GI50 was 27.3 nM in the assay with CCRF-CEM leukemia, 65.8 nM with HCT-15 colon, 57.2 nM in the assay on RPMI-8226 leukemia and 268 nM in the assay on NCI-H460 lung. Besides, the TGI in the assay with SF-295 CNS is 5.18 µM; with MOLT-4 leukemia, > 42 µM; in the assay on SK-MEL-28 melanoma it was > 100 µM; in the assay with SF-539 CNS, 3.49 µM; in the assay on HL-60(TB) leukemia it was 1.08 µM; with SW-620 colon it was > 100 µM. Also, the TGI is > 100 µM in the assay with CCRF-CEM leukemia, > 50.4 µM in the assay on HCT-15 colon, 12.3 µM with RPMI-8226 leukemia and 11.2 µM in the assay with NCI-H460 lung.
As to `CCN(CC)CCCC(C)Nc1cnc(C(=O)Nc2cccc3ccc(OC)nc23)cn1` (stereo not drawn), the GI50 in the assay with SF-295 CNS is 15 µM; in the assay with MOLT-4 leukemia, 2040 nM; in the assay with SK-MEL-28 melanoma it was 1740 nM; with SF-539 CNS it was 1790 nM; in the assay on HL-60(TB) leukemia it was 1920 nM; with SW-620 colon, 1780 nM. Besides, the GI50 with CCRF-CEM leukemia was 2740 nM; in the assay on HCT-15 colon, 1950 nM; in the assay with RPMI-8226 leukemia it was 2450 nM; in the assay on NCI-H460 lung it was 2120 nM. Besides, the TGI with SF-295 CNS is 29.9 µM; in the assay with MOLT-4 leukemia it was 4.67 µM; in the assay on SK-MEL-28 melanoma, 3.13 µM; in the assay on SF-539 CNS it was 3.21 µM; in the assay on HL-60(TB) leukemia, 3.9 µM; in the assay on SW-620 colon, 3.43 µM. Besides, the TGI was determined as 8.11 µM in the assay on CCRF-CEM leukemia, 4.31 µM with HCT-15 colon, 6.15 µM in the assay with RPMI-8226 leukemia and 4.66 µM in the assay with NCI-H460 lung.
Take `c1cc[c]([Pb]([c]2ccccc2)[c]2ccccc2)cc1`: the GI50 is 21.9 µM in the assay with SF-295 CNS; 15700 nM in the assay on MOLT-4 leukemia; 16500 nM with SK-MEL-28 melanoma; 14200 nM with SF-539 CNS; 41900 nM with HL-60(TB) leukemia; 21200 nM with SW-620 colon. The GI50 in the assay with CCRF-CEM leukemia was 10100 nM; in the assay on HCT-15 colon, 12400 nM; in the assay with RPMI-8226 leukemia, 14500 nM; in the assay with NCI-H460 lung, 20200 nM. Besides, the TGI is 58.3 µM in the assay with SF-295 CNS; 71.7 µM in the assay on MOLT-4 leukemia; 36.6 µM with SK-MEL-28 melanoma; 43.2 µM in the assay with SF-539 CNS; > 100 µM in the assay with HL-60(TB) leukemia; 57.1 µM in the assay with SW-620 colon. For the same molecule, the TGI is > 100 µM in the assay on CCRF-CEM leukemia, 28.4 µM with HCT-15 colon, 90 µM with RPMI-8226 leukemia and > 100 µM with NCI-H460 lung.
As for `FC(F)(F)c1nc(-c2ccccc2)oc1Sc1nnc(Sc2oc(-c3ccccc3)nc2C(F)(F)F)s1`, the TGI with SF-295 CNS was > 100 µM; in the assay on MOLT-4 leukemia, 17 µM; in the assay on SK-MEL-28 melanoma, > 93.8 µM; in the assay with SF-539 CNS it was > 100 µM; in the assay with HL-60(TB) leukemia, 19.7 µM; in the assay on SW-620 colon, > 100 µM. Besides, the TGI with CCRF-CEM leukemia is 34.8 µM; in the assay on HCT-15 colon it was > 59 µM; with RPMI-8226 leukemia, > 74.6 µM; in the assay on NCI-H460 lung it was > 100 µM.
